Test results: patent US8956445B2, “High stability diionic liquid salts” (Sigma-Aldrich Co., priority 2004, dated 2015)
Where two headings read alike, the source gives them in different places.

Key:
[1] = Surface tension (DuNuoy Tensiometer); type: physicochemical; conditions: room temperature (23° C.)
[2] = Density (2.0 mL volumetric tube, weighing by difference); type: physicochemical; conditions: 23° C.
Procedure: (§1) The densities of the ionic liquids or, more correctly, […] (used synonymously except as indicated otherwise explicitly or by context) was determined at 23° C. by placing 2.0 mL of the ionic liquid in a 2.0 mL volumetric tube and weighing by difference. The melting points of the ionic liquids were determined using a Perkin Elmer Pyris 1 Differential Scanning calorimeter (Boston, Mass.). Typical methods involved using a 10° C./min temperature ramp to determine and identify the first and second order thermal transitions. […] For solid compounds, the melting points were verified using a capillary melting point apparatus. Refractive index measurements were conducted at 23° C. using a Bausch & Lomb Abbe-3L refractometer.

[3] = Refractive index (Abbe-3L refractometer); type: physicochemical; conditions: 23° C.
Procedure: as §1

[4] = Solvation interaction parameters by inverse gas-liquid chromatography (Abraham solvation model); type: physicochemical
Procedure: The preparation of the capillary columns for inverse gas-liquid chromatographic analysis was performed using a previously described procedure.^31 All capillary columns had efficiencies between 2100 to 2500 plates/meter. Characterization of the capillary columns and probe molecule descriptions are listed in supplemental information. Multiple linear regression analysis (MLRA) and statistical calculations were performed using the program Analyse-it (Microsoft, USA).
We have previously reported that the Abraham solvation model, a linear free energy approach that utilizes inverse gas-liquid chromatography to describe the solvation properties of a liquid, can be used to characterize room temperature ionic liquids.^31 Described by equation 1, the model provides the so-called “interaction parameters” (r, s, a, b, l) by using multiple linear regression analysis to fit the retention factor (k, determined chromatographically) to the solute descriptors (R2, π2^H, α2^H, β2^H, log L^16) for a wide variety of probe solute molecules. […] The solvation properties of four dicationic ionic liquids (see Table 4) were evaluated and the interaction parameters compared to those obtained for their traditional monocationic analogues 1-butyl-3-methylimidazolium and 1-butyl-1-methylpyrrolidinium ionic liquids.
Previously we characterized a large number of room temperature ionic liquids in terms of multiple solvation interactions using the solvation parameter model, shown in equation 3.^44 log k=c+rR2+sπ2^H+aα2^H+bβ2^H+l log L^16 [3] This approach utilizes inverse gas-liquid chromatography and allows the use of a large number of probe molecules to deconvolute solute retention in terms of the type and magnitude of individual solvation interactions. The solute descriptors (R2, π2^H, α2^H, β2^H, log L^16) from Equation 3 are obtained from the literature for many probe molecules containing a variety of functional groups.^45 The retention factor is determined chromatographically. The solute descriptors and retention factors are subjected to multiple linear regression analysis to obtain the interaction parameter coefficients (r, s, a, b, l), which ultimately characterize the stationary phase: r is the ability of the diionic liquid containing-stationary phase to interact with π and n electrons of the solute, s is a measure of the dipolarity/polarizability of the diionic liquid containing-stationary phase, a defines the diionic liquid containing-stationary phase hydrogen bond basicity, b is a measure of the hydrogen bond acidity, and/refers to the ability of the diionic liquid containing-stationary phase to separate adjacent members of a homologous series.^46
(§2) Test solutes used to determine interaction parameters and solvation thermodynamics were dissolved in dichloromethane. A Hewlett-Packard model 5890 gas chromatograph and a Hewlett-Packard 6890 series integrator were used for all separations. Split injection and flame ionization detection were utilized with injection and detection temperatures of 250° C. Helium was used as the carrier gas with a column inlet pressure of 3.1 psi and flow rate of 1.0 mL/min. Methane was used to determine the dead volume of the column. Multiple linear regression analysis and statistical calculations were performed using the program Analyze-it (Microsoft).

[5] = Solvation thermodynamics of probe molecules (van't Hoff plots, GC); type: physicochemical
Description: Solvation thermodynamics can be determined chromatographically by recognizing that the Gibbs free energy change, ΔG°, of a solute between the mobile phase and the stationary phase can be described by equation 1:
[formula] where k is the solute retention factor and Φ is the column phase ratio. An expression shown in equation 2 can then be derived and illustrates the dependence of enthalpy, ΔH°, and entropy, ΔS°, on the change of the retention factor with temperature:
[formula] A van't Hoff plot of ln k versus 1/T provides the entropy (intercept) and enthalpy (slope) and describes a solute's transfer from the gas phase to the ionic liquid stationary phase. In this work, the solvation thermodynamics were determined for seven different probe molecules, listed in Table D, on two cross-linked ionic liquid phases and one ionic liquid stationary phase. […] For each probe molecule on each stationary phase, three separate van't Hoff plots were constructed so that changes in the probe molecule retention factor could be used to provide an error for each thermodynamic parameter. The probe molecule retention factors were determined at six different temperatures to obtain the highest possible correlation coefficient (>0.989).
as §2

[6] = probe 2-Chloroaniline, 40-100° C.
[7] = probe Ethyl Phenyl Ether, 35-75° C.

**Q.** For `Cc1n(C)cc[n+]1CCCCCCCCC[n+]1ccn(C)c1C.O=S(=O)([N-]S(=O)(=O)C(F)(F)F)C(F)(F)F.O=S(=O)([N-]S(=O)(=O)C(F)(F)F)C(F)(F)F` [C9(m2im)2-NTf2, 1,9-di(2,3-dimethylimidazolium)nonane di-bis[(trifluoromethyl)sulfonyl]imidate], which “Surface Tension” value [1] is on record?
**A.** 43.5 dynes/cm

**Q.** What about the Density [2] of the same compound?
**A.** 1.47 g/mL

**Q.** And the “Refractive Index” value [3]?
**A.** 1.448

**Q.** And the “Miscibility with Heptane” value?
**A.** Immiscible

**Q.** What about the “Miscibility with Water” value of the same compound?
**A.** Immiscible

**Q.** With `Cn1cc[n+](CCCCCCCCC[n+]2ccn(C)c2)c1.F[B-](F)(F)F.F[B-](F)(F)F` [C9(mim)2-BF4, 1,9-di(3-methylimidazolium)nonane di-tetrafluoroborate] as the compound, how does the “Surface Tension” value [1] read?
**A.** 61.2 dynes/cm

**Q.** What about the Density [2] of the same compound?
**A.** 1.33 g/mL

**Q.** What about the “Refractive Index” value [3] of the same compound?
**A.** 1.469

**Q.** What about the “Miscibility with Heptane” value of the same compound?
**A.** Immiscible

**Q.** What about the “Miscibility with Water” value of the same compound?
**A.** Miscible

**Q.** With `F[P-](F)(F)(F)(F)F.F[P-](F)(F)(F)(F)F.c1ccc(Cn2cc[n+](CCCCCCCCCCCC[n+]3ccn(Cc4ccccc4)c3)c2)cc1` [C12(benzim)2-PF6, 1,12-di(3-benzylimidazolium)dodecane di-hexafluorophosphate] as the compound, how does the “Surface Tension” value [1] read?
**A.** 47.4 dynes/cm

**Q.** And the Density [2]?
**A.** 1.27 g/mL

**Q.** What about the “Refractive Index” value [3] of the same compound?
**A.** 1.484

**Q.** What about the “Miscibility with Heptane” value of the same compound?
**A.** Immiscible

**Q.** What about the “Miscibility with Water” value of the same compound?
**A.** Immiscible

**Q.** Which “Surface Tension” value [1] does the source give for `Cn1cc[n+](CCCCCCCCCCCC[n+]2ccn(C)c2)c1.F[B-](F)(F)F.F[B-](F)(F)F` [C12(mim)2-BF4, 1,12-di(3-methylimidazolium)dodecane di-tetrafluoroborate] here?
**A.** 55.8 dynes/cm

**Q.** And the Density [2]?
**A.** 1.26 g/mL

**Q.** And the “Refractive Index” value [3]?
**A.** 1.503

**Q.** What about the “Miscibility with Heptane” value of the same compound?
**A.** Immiscible

**Q.** And the “Miscibility with Water” value?
**A.** Partially

**Q.** And the “Miscibility with Water” value (listed as 15)?
**A.** solubility of the salt in water decreases

**Q.** Which results are given for `Cn1cc[n+](CCCCCCCCCCCC[n+]2ccn(C)c2)c1.O=S(=O)([N-]S(=O)(=O)C(F)(F)F)C(F)(F)F.O=S(=O)([N-]S(=O)(=O)C(F)(F)F)C(F)(F)F` [C12(mim)2-NTf2, 1,12-di(3-methylimidazolium)dodecane di-bis[(trifluoromethyl)sulfonyl]imidate]?
**A.** Surface Tension [1]: 42.3 dynes/cm; Density [2]: 1.40 g/mL; Refractive Index [3]: 1.443; Miscibility with Heptane: Immiscible; Miscibility with Water: Immiscible

**Q.** Which results are given for `CCCCCCCCC[n+]1ccn(C)c1.O=S(=O)([N-]S(=O)(=O)C(F)(F)F)C(F)(F)F` [nmim-NTf2]?
**A.** Density [2]: 1.30 g/mL; Refractive Index [3]: 1.434; a (hydrogen bond basicity) ([4]; 40° C.): 1.91; b (hydrogen bond acidity) ([4]; 40° C.): 0.36; c (interaction parameter table, constant) ([4]; 40° C.): −2.98; l (dispersion forces) ([4]; 40° C.): 0.75; r (interaction via nonbonding and π-electrons) ([4]; 40° C.): 0; s (dipolarity/polarizability) ([4]; 40° C.): 1.62; a (hydrogen bond basicity) ([4]; 70° C.): 1.57; b (hydrogen bond acidity) ([4]; 70° C.): 0.18; c (interaction parameter table, constant) ([4]; 70° C.): −3.05; l (dispersion forces) ([4]; 70° C.): 0.63; r (interaction via nonbonding and π-electrons) ([4]; 70° C.): 0; s (dipolarity/polarizability) ([4]; 70° C.): 1.54; a (hydrogen bond basicity) ([4]; 100° C.): 1.43; b (hydrogen bond acidity) ([4]; 100° C.): 0.12; c (interaction parameter table, constant) ([4]; 100° C.): −3.47; l (dispersion forces) ([4]; 100° C.): 0.60; r (interaction via nonbonding and π-electrons) ([4]; 100° C.): 0; s (dipolarity/polarizability) ([4]; 100° C.): 1.52; ΔHAV ([5]; probe 1-Octanol, 35-75° C.): -14.168 kcal/mol; ΔSAV ([5]; probe 1-Octanol, 35-75° C.): −151 J/mol*K; ΔG ([5]; probe 1-Octanol, 50° C.): -2.505 kcal/mol; ΔHAV [5, 6]: -13.779 kcal/mol; ΔSAV [5, 6]: −134 J/mol*K; ΔG ([5]; probe 2-Chloroaniline, 70° C.): -2.7892 kcal/mol; ΔHAV ([5]; probe Decane, 35-75° C.): -10.848 kcal/mol; ΔSAV ([5]; probe Decane, 35-75° C.): −127 J/mol*K; ΔG ([5]; probe Decane, 50° C.): -1.039 kcal/mol; ΔHAV [5, 7]: -11.119 kcal/mol; ΔSAV [5, 7]: −121 J/mol*K; ΔG ([5]; probe Ethyl Phenyl Ether, 50° C.): -1.773 kcal/mol; ΔHAV ([5]; probe Fluorophenol, 40-100° C.): -11.497 kcal/mol; ΔSAV ([5]; probe Fluorophenol, 40-100° C.): −121 J/mol*K; ΔG ([5]; probe Fluorophenol, 70° C.): -1.573 kcal/mol; ΔHAV ([5]; probe Naphthalene, 40-100° C.): -12.856 kcal/mol; ΔSAV ([5]; probe Naphthalene, 40-100° C.): −127 J/mol*K; ΔG ([5]; probe Naphthalene, 70° C.): -2.44 kcal/mol; ΔHAV ([5]; probe Nitropropane, 27-50° C.): -9.3236 kcal/mol; ΔSAV ([5]; probe Nitropropane, 27-50° C.): −109 J/mol*K; ΔG ([5]; probe Nitropropane, 35° C.): -1.296 kcal/mol
